Tests used:
C2Cl2 myotubes [1] = experiment: C2Cl2 myotubes treated with IL-6; format: cell-based, mouse
Protocol: FIG. 22A. Representative western blots from C2Cl2 myotubes treated with IL-6 (100 ng/ml) for different times (left panel). Fold-changes in the densities of proteins corrected for GAPDH at different times calculated from values at time zero (right panel), n=3 repeats; *p<0.05 vs. time zero. FIG. 22B. C2Cl2 myotubes were infected with a lentivirus expressing constitutively active Stat3 (Stat3C-GFP). A representative western blot for the indicated proteins is shown. FIG. 22C. C2Cl2 myotubes were treated with or without C188-9 for 2 h before adding IL-6 (100 ng/ml) for 24 h. A representative western blot for the indicated proteins is shown. FIG. 22D. C2Cl2 myoblasts were co-transfected with a plasmid expressing C/EBPδ promoter-driven luciferase, Renila plus a lentivirus expressing Stat3C-GFP and treated with or without IL-6. Dual luciferase activity was measured (n=3 repeats; *p<0.05 vs respective GFP control). FIG. 22E. C2Cl2 myoblasts were transfected with control siRNA or C/EBPδ siRNA and after differentiation to myotubes were treated with or without IL-6. Representative western blots of Stat3, C/EBPδ and myostatin are shown. FIG. 22F. C2Cl2 myoblasts were co-transfected with a plasmid expressing the myostatin promoter-driven luciferase plus plasmids (cDNA3 control, Stat3C, C/EBPδ, C/EBPδ siRNA or Stat3C plus C/EBPδ siRNA) and treated with or without IL6. Luciferase activity was measured (n=3 repeats; *p<0.05 vs. cDNA3 CTRL). FIG. 22G. C2Cl2 myoblasts were transfected with lentivirus expressing a siRNA to myostatin. […] In these cells, protein degradation (upper panel; n=6 repeats, #p<0.05 vs GFP control, *p<0.05 vs siRNA CTRL) was measured.
C2Cl2 myotubes were treated with or without C188-9 for 1 or 24 h and RT-PCR was used to assess mRNA levels. […]
C2Cl2 myotubes were treated with C188-9, a Stat3 inhibitor, for 2 h before adding IL-6 (100 ng/ml) for 24 h. Myotube sizes were measured (mean±SEM; n=3 independent experiments; *, p<0.05 vs. untreated myotubes).
C2Cl2 myoblasts (ATCC, Manassas, Va.) were grown in high glucose Dulbecco's Modified Eagle's Medium (DMEM) supplemented with 10% FBS, 100 U/ml penicillin, […], […] sodium pyruvate and 2 mM L-glutamine. […] Myotube sizes were evaluated by NIS-element software. […] Alternatively, 2 μg plasmids expressing Stat3C or C/EBPδ or C/EBPδ promoter- or myostatin promoter-reporter luciferase construct were trasfected (control, Renilla) and luciferase activities was measured using the Promega assay (Madison, Wis.).
Muscle samples (1 mg per 10 μl of RIPA buffer) or C2Cl2 myotubes were homogenized in RIPA buffer containing Complete Mini Protease Inhibitor and PhosStop Phosphatase Inhibitor (Roche Applied Science, Indianapolis, Ind.). […] The band density of target proteins was quantified using NIH ImageJ Software.

C2Cl2 myotubes [2] = experiment: C2Cl2 myotubes exposed to conditioned media from C26 or LLC cancer cells; format: cell-based, mouse
Protocol: C2Cl2 myotubes. FIG. 36A. Representative western blots of p-Stat3 and Stat3 in C2Cl2 myotubes that were exposed for different times to conditioned media from C26 colon cancer cells. FIG. 36B. C2Cl2 myotubes were pretreated with the Stat3 inhibitor, C188-9, for 2 hours before they were exposed to conditioned media from C26 or LLC cancer cells. Representative western blots for p-Stat3 or Stat3 are shown. FIG. 36C. C2Cl2 myotubes were treated with C188-9 plus conditioned media from C26 cells for different times. Representative western blots for C/EBPδ and myostatin are shown. FIG. 36D. The average sizes of C2Cl2 myotubes was assessed following incubation with conditioned media of C26 cells with or without C188-9 for 72 hours (mean±SEM; p<0.05).
FIG. 41A. C2Cl2 myotubes were treated with conditioned media from C26 cells with or without C188-9 for 72 hours. A representative western blot showing a decrease in the myosin heavy chain is blocked by C188-9. FIG. 41B. C2Cl2 myotubes were treated with conditioned media from C26 cells with or without C188-9 for 24 hours. Levels of mRNAs of MAFbx/Atrogin-1 and MuRF-1 are shown. FIGS. 41C & 41D. CD2F1 mice bearing C26 tumors were treated with C188-9 for 2 weeks. […] FIG. 41E. […] Results are mean±SEM.
Mouse C2Cl2 myoblasts (ATCC, Manassas, Va.) and LLC cells (Dr. Yi-Ping Li; University of Texas Health Sciences Center, Houston, Tex.) were cultured in DMEM (Cellgro Mediatech, Manassas, Va.), supplemented with 10% FBS (Invitrogen, Carlsbad, Calif.) plus 100 U/ml penicillin and 100 µg/ml streptomycin. C26 cells (a gift from Dr. Vickie Baracos, University of Alberta, Edmonton, Alberta, Canada) were cultured in RPMI 1640 medium (Sigma-Aldrich), supplemented with 10% FBS (Invitrogen, Carlsbad, Calif.), 100 U/ml penicillin, and 100 µg/ml streptomycin.
At >80% confluence, the media was changed to DMEM supplemented with 2% horse serum (Sigma-Aldrich) to induce myoblasts to differentiate into myotubes (Zhang et al., 2011). After 36 h, conditioned media (CM) from cultured C26 or LLC cells was collected and centrifuged (450×g, 5 min, 4° C.); media was diluted 1:5 with 2% horse serum before adding cultured C2Cl2 myotubes (Zhang et al., 2011).

[3] = C188-9 2 h before IL-6 100 ng/ml for 24 h
[4] = C26 conditioned media, 72 hours

SMILES: COc1ccc(S(=O)(=O)Nc2cc(-c3c(O)ccc4ccccc34)c(O)c3ccccc23)cc1 [C188-9]
- IL-6-induced increase in p-Stat3, C/EBPδ and myostatin (C2Cl2 myotubes [1]; [3]): blocked these responses
- decrease in myotubes size induced by IL-6 (C2Cl2 myotubes [1]; [3]): prevented the decrease
- C/EBPδ and myostatin mRNAs (C2Cl2 myotubes [1]; IL-6-treated C2Cl2 myotubes): suppressed
- p-Akt (C2Cl2 myotubes [1]; IL-6-treated C2Cl2 myotubes): increased p-Akt
- expressions of C/EBPδ and myostatin increased by conditioned media (C2Cl2 myotubes [2]; C26 conditioned media): suppressed
- increased Atrogin and MuRF-1 mRNA expression (C2Cl2 myotubes [2]; C26 conditioned media): suppressed
- decrease in sizes of myotubes by conditioned media (C2Cl2 myotubes [2]; [4]): prevented the decrease
- decreased protein level of myosin heavy chain (C2Cl2 myotubes [2]; [4]): blocked
- increases in p-Stat3 by C26 or LLC conditioned media (C2Cl2 myotubes [2]; C188-9 added 2 h before, 15 min conditioned media): blocked

From US11161831B2, “Methods and compositions for treatment of muscle wasting, muscle weakness, and/or cachexia” (Baylor College of Medicine, priority 2013, dated 2021)
